Format in all cases: cell-based, human
Test [1] concerns AsPC-1 cells (KRAS G12D mutation). Description: 3D cell proliferation assay (CellTiter Glo-3D), AsPC-1. Conditions: medium with 2% FBS, read-out: AsPC-1 AP IC50. Summed up:
(§1)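 Luminescence read-out (CellTiter-Glo 3D) after 5-day compound exposure at 37 °C, 5% CO2. Cells: NCI-H441 and AsPC-1, 800/well, RPMI-1640 + 2% FBS, 0.1% DMSO final. IC50 by four-parameter fit of % inhibition against log concentration.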
Background: Cellular ATP, detected with luciferase, serves as a proxy for viable cell number.

The next test concerns NCI-H441 cells. Description: 3D cell proliferation assay (CellTiter Glo-3D), NCI-H441. Conditions: medium with 2% FBS, read-out: H441 AP IC50. Summed up: as §1
For test [2], the system named is p-ERK in NCI-H441 cells (KRAS G12V mutation). Description: Cell p-ERK assay (HTRF) in NCI-H441 cells. Conditions: NCI-H441 cells, 3 h compound incubation, HTRF p-ERK T202/Y204, read-out: H441 p-ERK IC50. Summed up: (§2)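 AsPC-1 (10000/well) or NCI-H441 (20000/well) cells were seeded overnight, then treated 3 h at 37° C. with 3.16-fold compound dilutions (0.1% DMSO final). Lysates were probed 4 h for phospho-ERK T202/Y204 by HTRF; inhibition versus DMSO and blank wells gave IC50 from four-parameter fits.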
On the technique in general: TR-FRET usually uses a lanthanide donor and a delayed reading to cut background.

The subject of test [3] is p-ERK in AsPC-1 cells (KRAS G12D mutation). Description: Cell p-ERK assay (HTRF) in AsPC-1 cells. Particulars: AsPC-1 cells, 3 h compound incubation, HTRF p-ERK T202/Y204, read-out: AsPC-1 p-ERK IC50. Summed up:
as §2

Where [4] appears, read: 3D cell proliferation (CellTiter Glo-3D).
Where [5] appears, read: Homo sapiens, ASPC1, 3D cell proliferation (CellTiter Glo-3D).
Setting [6] is: Homo sapiens, NCI-H441, 3D cell proliferation (CellTiter Glo-3D).

Where a name gives a salt, the structure may show the parent alone. Read-outs that look alike come from different tables or passages of the source.

For ten compounds, IC50 results are on record in patent US20260234165A1, “MACROCYCLIC COMPOUNDS, PREPARATION METHOD THEREFOR, AND USE THEREOF” (GENFLEET THERAPEUTICS (SHANGHAI) INC., priority 2004, published 2026).

In general, IC50 refers to the midpoint of a concentration-inhibition curve.

On to `C=C1CN(CC#Cc2cnc([C@H](C)OC)c(-c3c4c5cc(ccc5n3CC)-c3csc(n3)C[C@H](NC(=O)[C@H]3[C@H](C)[C@@H]3C)C(=O)N3CCC[C@H](N3)C(=O)OCC(C)(C)C4)c2)C1` [Compound Z1034, (1 r,2R,3S)—N-((6^3S,4S,Z)-1^1-ethyl-1^2-(2-((S)-1-methoxyethyl)-5-(3-(3-methyleneazetidine-1-yl)prop-1-Sn-1-yl)pyridin-3-yl)-10,10-dimethyl-5,7-dioxo-6^1,6^2,6^3,6^4,6^5,6^6-hexahydro-1^1H-8-oxa-2(4.2)-thiazola-1(5,3)-indola-6(1.3)-pyridazinacycloundecaphane-4-yl)-2,3-dimethylcyclopropane-1-carboxamide], for which the IC50 was 0.2 nM in test [1] (setting [4]), 0.28 nM in the test with NCI-H441 cells (setting [4]), 0.29 nM in test [2] and 0.33 nM in test [3].
As to `[2H]C([2H])([2H])O[C@@H](C)c1ncc(N2CCN(C)CC2)cc1-c1c2c3cc(ccc3n1CC)-c1csc(n1)C[C@H](NC(=O)C(C)(C)F)C(=O)N1CCC[C@H](N1)C(=O)OCC(C)(C)C2` (atropisomer, axis not shown; (Ra)) [Compound Z64, N-((1^2R,6^3S,4S,Z)-1^1-ethyl-(Ra)-1^2-(2-((S)-1-(methoxy-d3)ethyl)-5-(4-methylpiperazin-1-yl)pyridin-3-yl)-10,10-dimethyl-5,7-dioxo-6^1,6^2,6^3,6^4,6^5,6^6-hexahydro-1^1H-8-oxa-2(4,2)-thiazola-1(5,3)-indola-6(1,3)-pyridazinacycloundecaphane-4-yl)-2-fluoro-2-methylpropanamide], the IC50 came out at 12.8 nM in test [1] (setting [5]); 6.27 nM in the test on NCI-H441 cells (setting [6]); 3.32 nM in test [2] (Homo sapiens, NCI-H441, 3 h); 6.24 nM in test [3] (Homo sapiens, ASPC1, 3 h).
In the case of `CCn1c(-c2cc(C#CC(C)(C)N3CCC(OC)CC3)cnc2[C@H](C)OC)c2c3cc(ccc31)-c1csc(n1)C[C@H](NC(=O)[C@H]1[C@H](C)[C@@H]1C)C(=O)N1CCC[C@H](N1)C(=O)OCC(C)(C)C2` (atropisomer, axis not shown; (Ra)) [Compound Z628-1, (1r,2R,3S)—N-((6^3S,4S,Z)-1^1-ethyl-(Ra)-1^2-(2-((S)-1-methoxyethyl)-5-(3-(4-methoxypiperidin-1-yl)-3-methylbut-1-yn-1-yl)pyridin-3-yl)-10,10-dimethyl-5,7-dioxo-6^1,6^2,6^3,6^4,6^5,6^6hexahydro-1^1H-8-oxa-2(4,2)-thiazola-1(5,3)-indola-6(1,3)-pyridazinacycloundecaphane-4-yl)-2,3-dimethylcyclopropane-1-carboxamide], the IC50 was determined as 0.62 nM in test [1] (setting [4]), 0.34 nM in the test on NCI-H441 cells (setting [4]), 0.35 nM in test [2] and 0.31 nM in test [3].
In the case of `CCn1c(-c2cc(C#CCN3CCOC[C@@H]3C)cnc2[C@H](C)OC)c2c3cc(ccc31)-c1csc(n1)C[C@H](NC(=O)[C@H]1[C@H](C)[C@@H]1C)C(=O)N1CCCC(N1)C(=O)OCC(C)(C)C2` (atropisomer, axis not shown; (Ra)) [Compound Z814], the 50% inhibitory concentration (IC50) in test [1] (setting [4]) came to 0.14 nM; with NCI-H441 cells (setting [4]) it was 0.18 nM; in test [2], 0.14 nM; in test [3], 0.15 nM.
As for `CCn1c(-c2cc(C#C[C@@]3(C)CCCN3C)cnc2[C@H](C)OC)c2c3cc(ccc31)-c1csc(n1)C[C@H](NC(=O)[C@H]1[C@H](C)[C@@H]1C)C(=O)N1CCC[C@H](N1)C(=O)OCC(C)(C)C2` (atropisomer, axis not shown; (Ra)) [Compound Z643, (1r,2R,3S)—N-((6^3S,4S,Z)—(Ra)-1-(5-(((R)-1,2-dimethylpyrrolidin-2-yl)ethynyl)-2-((S)-1-methoxyethyl)pyridin-3-yl)-1^1-ethyl-10,10-dimethyl-5,7-dioxo-6^1,6^2,6^3,6^4,6^5,6^6-hexahydro-1^1H-8-oxa-2(4,2)-thiazola-1(5,3)-indola-6(1,3)-pyridazinacycloundecaphane-4-yl)-2,3-dimethylcyclopropane-1-carboxamide], the IC50 was found to be 0.64 nM in test [1] (setting [5]); 0.3 nM with NCI-H441 cells (setting [6]); 0.22 nM in test [2] (Homo sapiens, NCI-H441, 3 h); 0.51 nM in test [3] (Homo sapiens, ASPC1, 3 h).
Take `CCn1c(-c2cc(N3CCN(C4(c5cccc(C)n5)CC4)CC3)cnc2[C@H](C)OC)c2c3cc(ccc31)-c1csc(n1)C[C@H](NC(=O)[C@H]1[C@H](C)[C@@H]1C)C(=O)N1CCC[C@H](N1)C(=O)OCC(C)(C)C2` [Compound Z81, (1r,2R,3S)—N-((6^3S,4S,Z)-1^1-ethyl-2-(2-((S)-1-methoxyethyl)-5-(4-(1-(6-methylpyridin-2-yl)cyclopropyl)piperazin-1-yl)pyridin-3-yl)-10-10-dimethyl-5,7-dioxo-6^1,6^2,6^3,6^4,6^5,6^6-hexahydro-1^1H-8-oxa-2(4,2)-thiazola-1(5,3)-indola-6(1,3)-pyridazinacycloundecaphane-4-yl)-2,3-dimethylcyclopropane-1-carboxamide formate]: the IC50 in test [1] (setting [5]) is 3.42 nM; in the test with NCI-H441 cells (setting [6]) it was 2.03 nM; in test [2] (Homo sapiens, NCI-H441, 3 h), 1.7 nM; in test [3] (Homo sapiens, ASPC1, 3 h) it was 2.01 nM.
Consider `CC[C@@H](C)C(=O)N[C@H]1Cc2nc(cs2)-c2ccc3c(c2)c(c(-c2cc(OCCN4CCS(=O)(=O)CC4)cnc2[C@H](C)OC)n3CC)CC(C)(C)COC(=O)[C@@H]2CCCN(N2)C1=O` (atropisomer, axis not shown; (Ra)) [Compound Z610, (2R)—N-((6^3S,4S,Z)—(Ra)-1^2-(5-(2-(1,1-dioxidothiomorpholino)ethoxy)-2-((S)-1-methoxyethyl)pyridin-3-yl)-1^1-ethyl-10,10-dimethyl-5,7-dioxo-6^1,6^2,6^3,6^4,6^5,6^6-hexahydro-1^1H-8-oxa-2(4,2)-thiazola-1(5,3)-indola-6(1,3)-pyridazinacycloundecaphane-4-yl)-2-methylbutanamide], for which the IC50 came out at 1.37 nM in test [1] (setting [5]); 0.32 nM in the test with NCI-H441 cells (setting [6]); 0.57 nM in test [2] (Homo sapiens, NCI-H441, 3 h); 0.71 nM in test [3] (Homo sapiens, ASPC1, 3 h).
Consider `CCn1c(-c2cc(C#CCN3CC(OC)C3)cnc2[C@H](C)OC)c2c3cc(ccc31)-c1csc(n1)C[C@H](NC(=O)[C@H]1[C@H](C)[C@@H]1C)C(=O)N1CCC[C@H](N1)C(=O)OCC(C)(C)C2` (atropisomer, axis not shown; (Ra)) [Compound Z945, (1r,2R,3S)—N-((6^3S,4S,Z)-1^1-ethyl-1^2-(5-(3-(3-methoxyazetidin-1-yl)prop-1-yn-1-yl)-(Ra)-2-((S)-1-methoxyethyl)pyridin-3-yl)-10,10-dimethyl-5,7-dioxo-6^1,6^2,6^3,6^4,6^5,6^6-hexahydro-1^1H-8-oxa-2(4,2)-thiazola-1(5,3)-indola-6(1,3)-pyridazinacycloundecaphane-4-yl)-2,3-dimethylcyclopropane-1-carboxamide], for which the half-inhibitory concentration (IC50) turned out to be 0.23 nM in test [1] (setting [5]); 0.23 nM in the test with NCI-H441 cells (setting [6]); 0.18 nM in test [2] (Homo sapiens, NCI-H441, 3 h); 0.28 nM in test [3] (Homo sapiens, ASPC1, 3 h).
For `CCn1c(-c2cc(C#CCN3CCCOCC3)c[n+]([O-])c2[C@H](C)OC)c2c3cc(ccc31)-c1csc(n1)C[C@H](NC(=O)[C@H]1[C@H](C)[C@@H]1C)C(=O)N1CCC[C@H](N1)C(=O)OCC(C)(C)C2` (atropisomer, axis not shown; (Ra)) [Compound Z914-1, 5-(3-(1,4-oxazepan-4-yl)prop-1-yn-1-yl)-(Ra)-3-((6^3S,4S,Z)-4-((1r,2R,3S)-2,3-dimethylcyclopropane-1-carboxamido)-1^1-ethyl-10,10-dimethyl-5,7-dioxo-6^1,6^2,6^3,6^4,6^5,6^6-hexahydro-1^1H-8-oxa-2(4,2)-thiazola-1(5,3)-indola-6(1,3)-pyridazinacycloundecaphane-12-yl)-2-((S)-1-methoxyethyl)pyridine-1-oxide], the IC50 in test [1] (setting [4]) worked out at 0.24 nM; with NCI-H441 cells (setting [4]), 0.11 nM; in test [2] it was 0.27 nM; in test [3], 0.19 nM.
As to `CO[C@@H](C)c1ncc(OCCN2CCS(=O)(=O)CC2)cc1-c1c2c3cc(ccc3n1C(C)C)-c1csc(n1)C[C@H](NC(=O)[C@H]1C[C@@H]1C)C(=O)N1CCC[C@H](N1)C(=O)OCC(C)(C)C2` (atropisomer, axis not shown; (Ra)) [Compound Z603, (1S,2S)—N-((6^3S,4S,Z)—(Ra)-1^2-(5-(2-(1,l-dioxidothiomorpholino)ethoxy)2-((S)-1-methoxyethyl)pyridin-3-yl)-1^1-isopropyl-10,10-dimethyl-5,7-dioxo-6^1,6^2,6^3,6^4,6^5,6^6-hexahydro-1^1H-8-oxa-2(4,2)-thiazola-1(5,3)-indola-6(1,3)-pyridazinacycloundecaphane-4-yl)-2-methylcyclopropane-1-carboxamide], the IC50 was 0.89 nM in test [1] (setting [5]); 0.31 nM in the test on NCI-H441 cells (setting [6]); 0.22 nM in test [2] (Homo sapiens, NCI-H441, 3 h); 0.6 nM in test [3] (Homo sapiens, ASPC1, 3 h).
